According to publication PMC7838546, “A Thermostable, Modified Cathelicidin-Derived Peptide With Enhanced Membrane-Active Activity Against Salmonella enterica serovar Typhimurium” (Frontiers in Microbiology, 2021):
Ends that are not written are not given here.

How the values were obtained:
[1] = test system: S. enterica serovar 4,5,12:i:- H1-027 (clinical isolate); assay: MIC/MBC, broth microdilution and colony count; type: cell-based, Salmonella enterica serovar 4,5,12:i:-; conditions: H1-027, stool, resistant Amp, T, broth microdilution, 37°C, 24 h
Experimental: (§1) Salmonella enterica serovar Typhimurium ATCC 13311, 24 drug-resistant foodborne and eleven drug-resistant human borne S. enterica serovar Typhimurium and 4,5,12:i:- isolates (Table 1) were used as test microorganisms. They were previously isolated for molecular characterization in 2014 and kindly provided by Dr. Soraya Chaturongakul (Mahidol University, Thailand) ([Huoy et al., 2014]). All bacteria were cultured in Tryptic Soy Broth (TSB) and incubated at 37°C for 18 h. Mueller Hinton Broth (MHB) was then used to wash and rinse the bacteria. The bacterial suspensions were then diluted to obtain concentrations of 10^7 CFU/ml for inoculations.
(§2) A modified version of the National Committee for Clinical Laboratory Standards (NCCLS) broth microdilution method ([Steinberg et al., 1997]) was used to determine the minimum inhibitory concentrations (MICs) of peptide and compared to that of nisin. Fifty microliters of two-fold serial dilutions of each peptide [0.98–250 μg/ml in 0.01% (v/v) acetic acid and 0.2% (w/v) bovine serum albumin (BSA, Sigma-Aldrich, MO, United States)], were incubated with 50 μl of bacterial suspensions (approximately 10^7 CFU/ml) at 37°C for 24 h in a shaking incubator. MICs were taken as the lowest concentration of peptide at which growth was inhibited as observed by visual inspection. Bacterial cultures without peptides and uncultured broth were used as positive and negative controls, respectively. Minimal bactericidal concentrations (MBCs) were determined using a colony count assay ([Clinical Laboratory Standards Institute [CLSI], 2015]). Fifty microliters of samples from each non-turbid well in the MIC determination experiment was plated on Mueller Hinton Agar (MHA) and colonies were observed after overnight incubation at 37°C. MBCs were designated as the least concentration showing no colony growth on the plate. All of experiments were performed in triplicate.

[2] = test system: S. enterica serovar 4,5,12:i:- H2-090 (foodborne isolate); assay: MIC/MBC, broth microdilution and colony count; type: cell-based, Salmonella enterica serovar 4,5,12:i:-; conditions: H2-090, pork intestine, resistant Amp, T, broth microdilution, 37°C, 24 h
Experimental: as §1, §2

[3] = test system: S. enterica serovar 4,5,12:i:- H1-025 (clinical isolate); assay: MIC/MBC, broth microdilution and colony count; type: cell-based, Salmonella enterica serovar 4,5,12:i:-; conditions: H1-025, urine, resistant Amp, Ctx, C, T, intermediate Cp, NA, SxT, broth microdilution, 37°C, 24 h
Experimental: as §1, §2

[4] = test system: S. enterica serovar 4,5,12:i:- H2-055 (foodborne isolate); assay: MIC/MBC, broth microdilution and colony count; type: cell-based, Salmonella enterica serovar 4,5,12:i:-; conditions: H2-055, pork liver, resistant Amp, T, broth microdilution, 37°C, 24 h
Experimental: as §1, §2

[5] = test system: S. enterica serovar 4,5,12:i:- H2-067 (foodborne isolate); assay: MIC/MBC, broth microdilution and colony count; type: cell-based, Salmonella enterica serovar 4,5,12:i:-; conditions: H2-067, pork kidney, resistant Amp, T, broth microdilution, 37°C, 24 h
Experimental: as §1, §2

[6] = test system: S. enterica serovar 4,5,12:i:- H2-047 (foodborne isolate); assay: MIC/MBC, broth microdilution and colony count; type: cell-based, Salmonella enterica serovar 4,5,12:i:-; conditions: H2-047, pork liver, resistant Amp, intermediate Cp, broth microdilution, 37°C, 24 h
Experimental: as §1, §2

[7] = test system: S. enterica serovar 4,5,12:i:- H2-062 (foodborne isolate); assay: MIC/MBC, broth microdilution and colony count; type: cell-based, Salmonella enterica serovar 4,5,12:i:-; conditions: H2-062, pork intestine, resistant Amp, T, intermediate Cp, broth microdilution, 37°C, 24 h
Experimental: as §1, §2

[8] = test system: S. enterica serovar 4,5,12:i:- H2-082 (foodborne isolate); assay: MIC/MBC, broth microdilution and colony count; type: cell-based, Salmonella enterica serovar 4,5,12:i:-; conditions: H2-082, pork intestine, resistant Amp, T, broth microdilution, 37°C, 24 h
Experimental: as §1, §2

[9] = test system: S. enterica serovar 4,5,12:i:- H2-089 (foodborne isolate); assay: MIC/MBC, broth microdilution and colony count; type: cell-based, Salmonella enterica serovar 4,5,12:i:-; conditions: H2-089, pork intestine, resistant Amp, broth microdilution, 37°C, 24 h
Experimental: as §1, §2

[10] = test system: S. enterica serovar 4,5,12:i:- H2-050 (foodborne isolate); assay: MIC/MBC, broth microdilution and colony count; type: cell-based, Salmonella enterica serovar 4,5,12:i:-; conditions: H2-050, pork heart, resistant Amp, broth microdilution, 37°C, 24 h
Experimental: as §1, §2

[11] = test system: S. enterica serovar 4,5,12:i:- H2-065 (foodborne isolate); assay: MIC/MBC, broth microdilution and colony count; type: cell-based, Salmonella enterica serovar 4,5,12:i:-; conditions: H2-065, pork liver, resistant Amp, T, broth microdilution, 37°C, 24 h
Experimental: as §1, §2

[12] = test system: S. enterica serovar 4,5,12:i:- H2-071 (foodborne isolate); assay: MIC/MBC, broth microdilution and colony count; type: cell-based, Salmonella enterica serovar 4,5,12:i:-; conditions: H2-071, pork heart, resistant Amp, Ctx, C, T, SxT, intermediate Cp, broth microdilution, 37°C, 24 h
Experimental: as §1, §2

[13] = test system: S. enterica serovar 4,5,12:i:- H2-072 (foodborne isolate); assay: MIC/MBC, broth microdilution and colony count; type: cell-based, Salmonella enterica serovar 4,5,12:i:-; conditions: H2-072, pork intestine, resistant Amp, Ctx, C, T, SxT, intermediate Cp, broth microdilution, 37°C, 24 h
Experimental: as §1, §2

[14] = test system: L929 mouse fibroblast cells; assay: Cytotoxicity assay (MTT); type: cell-based; conditions: 24 h, up to 125 μg/ml
Experimental: The toxicity of P7 peptide on L929 mouse fibroblast cells was assessed by a dye reduction assay using 3-(4,5 dimethylthiazol-2-yl)-2,5-diphenyltetrazolium bromide (MTT). Briefly, 3 × 10^4 L929 cells in RPMI 1640 [supplemented with 10% (v/v) fetal bovine serum, 0.2% (w/v) sodium bicarbonate, 2 mM L-glutamine, 100 U/ml penicillin and […] streptomycin] were seeded into each well of 96-well plates and then incubated in a humidified atmosphere with 5% CO2 at 37°C for 24 h. After the incubation period, the peptide was added to obtain final concentrations of 0.98–250 μg/ml; plates were incubated at 37°C under 5% CO2 for 24 h. RPMI 1640 medium with and without cells were used as positive and negative controls, respectively. After incubation, a final concentration of 0.5 mg/ml MTT (Sigma-Aldrich, MO, United States) was added and incubated at 37°C under 5% CO2 for 4 h. Then, the supernatants were removed from each well and 150 μl of dimethyl sulfoxide (DMSO) was added and mixed thoroughly to solubilize the formazan crystals. Subsequently, absorbance was measured at 570 nm using a microplate reader. The cell viability (%) was calculated according to the formula:
%Cellviability=ODTreated-ODBlank/ODUntreated-ODBlank×100

Substance | MIC [1] | MIC [2] | MIC [3] | MIC [4] | MIC [5] | MIC [6] | MIC [7] | MIC [8] | MIC [9] | MIC [10] | MIC [11] | MIC [12] | MIC [13] | Cytotoxicity on L929 cells [14]
Nisin: authorized food preservative peptide, binds lipid II and forms membrane pores (ITSISLCTPGCKTGALMGCNMKTATCHCSIHVSK; cysteine pairing not given here; also: lantibiotic nisin-A; UniProt P13068 24-57, looked up) | >1000 µg/mL | >1000 µg/mL | >1000 µg/mL | >1000 µg/mL | >1000 µg/mL | >1000 µg/mL | >1000 µg/mL | >1000 µg/mL | >1000 µg/mL | >1000 µg/mL | >1000 µg/mL | >1000 µg/mL | >1000 µg/mL | 
KIAKRIWKILRR-NH2 [P7] |  |  |  |  |  |  |  |  |  |  |  |  |  | no cytotoxicity
